Legend:
phospho-AMPK = phospho-AMPK / p-ACC immunoblotting in Beas2B cells (in vitro studies); type: cell-based, Human
Protocol: FIG. 3. (A) Beas2b cells were cultured in DMEM 2% media with glucose for 24 h before switching to glucose-free media. Cells were then exposed to either DMSO or Compound 1 (2 μM) in a time course before being collected for immunoblotting. (B) Beas2B cells were exposed to Compound 1 for 18 h at various doses before being collected for immunoblotting. (C) Beas2b cells were cultured in DMEM 2% media with glucose for 24 h before switching to glucose-free media. Cells were then exposed to AICAR at various doses with or without Compound 1 co-treatment. After 18 h, cells were collected before being assayed by immunoblotting.
FIG. 4. (A) Beas2b cells were cultured in DMEM 2% media with glucose for 24 h before switching to glucose-free media. Cells were then exposed to Compound 12 in a dose dependent manner for 18 h before being collected for immunoblotting. (B) Beas2b cells were cultured in DMEM 2% media with glucose for 24 h before Compound 12 treatment in a dose dependent manner. After 18 h, cells were then collected for immunoblotting. (C) Beas2b cells were cultured in DMEM 2% media with glucose for 24 h before switching to glucose-free media. Cells were then exposed to Compound 12 for 18 h before being collected for mRNA analysis. (D) 50K PBMC cells were cultured in 96 well plates before being exposed to Compound 12 for 4 h. Cells were then treated with LPS (10 ng/ml) for additional 2 h. Media were then collected and IL-1b concentration was determined by ELISA.
FIG. 9. (A) Beas2b cells were cultured in DMEM 2% media with glucose for 24 h before switching to glucose-free media. Cells were then exposed to Compound 23 or metformin in a dose dependent manner for 18 h before being collected for immunoblotting. (B) Beas2b cells were cultured in DMEM 2% media with glucose for 24 h before switching to glucose-free media and treated with Compound 12 or Compound 23 in a dose dependent manner. After 6 h, cells were then collected for immunoblotting. (C) Beas2b cells were cultured in DMEM 2% media with glucose for 24 h before switching to glucose-free media and treated with Compound 12 or Compound 23 in a dose dependent manner. After 18 h, cells were then collected for immunoblotting. (D) Beas2b cells were transfected with AMPK phospho mimic T172D or phospho dead T172A mutant for 24 h. Cells were then switched to glucose-free media and exposed to Compound 23 in a dose or time dependent manner before being collected for immunoblotting. (E) Beas2b cells were transfected with control siRNA or Fbxo48 siRNA for 48 h before switching to glucose-free media. Cells were then exposed to Compound 23 in a dose dependent manner before being collected for immunoblotting. (F) Compound 23 chemical structure.
Compound 1 was studied in in vitro assays using Beas2B cells. […]
Compound 23 was tested in in vitro studies using Beas2B cells and compared with metformin.

C57BL6 mice = test: LPS-induced sepsis model; type: in vivo; conditions: i.p., LPS (E. coli) 3 mg/kg i.p. after 10 min, blood at 2 h
Protocol: FIG. 5. C57BL6 mice were administered i.p. vehicle, 0.04, 0.2, 1 or 5 mg/kg of Compound 12. After 10 min, mice were given LPS (E. coli, 3 mg/kg) through an i.p. injection and, after 2 h, mice were euthanized and blood was collected for IL1-β, IL-6 and TNFα measurements. Shown in panels (D)-(F) is % inhibition of cytokine levels as a function of drug dose. The data represent n=3 mice/group at each dose. Protein (A), cell counts (B), bacterial count (C), and presence of AMPK and pAMPK (G) were also determined.
(§1) FIG. 11. (A-B.) C57BL6 mice were administered i.p. vehicle, 0.08, 0.4, 2 or 10 mg/kg of Compound 23. After 10 min, mice were given LPS (E. coli, 3 mg/kg) through an i.p. injection and, after 2 h, mice were euthanized and blood collected for IL-6 and TNFα measurements. Shown in panels (A-B.) are the cytokine levels as a function of drug dose. The data represent n=3 mice/group at each dose. (C-G) Compound 23 (2 or 10 mg/kg) was administered to mice though an i.p. injection, and mice were immediately challenged with LPS (E. coli, 3 mg/kg, i.t.) or without (control, CON) for an additional 18 h. Mice were then euthanized and lungs were lavaged with saline, harvested, and then homogenized. Lavage protein (C), cell counts (D) and cytokine secretions (E-G) were measured. The data are representative of data from n=5 mice/group, *P<0.05 versus vehicle.
In a sepsis model, Compound 12 was administered to mice at various doses through an i.p. injection, and, after 10 min, the mice were given LPS (E. coli; 3 mg/kg i.p.). Two hours later, the mice were euthanized, and blood was collected and assayed for IL-1β, IL-6 and TNFα cytokine levels.
(§2) Compound 23 was tested in a sepsis model. Compound 23 was administered to mice at various doses through an i.p. injection, and 10 min later, mice were given LPS (E. coli; 3 mg/kg i.p.). After 2 h, mice were euthanized and blood was collected and assayed for IL-6 and TNFα cytokine levels. […] Finally, Compound 23 was tested in a pneumonia model using LPS endotoxin. […] Thus Compound 23 protects the lung against LPS induced lung injury.

pAMPK = pAMPK immunoblotting in Beas2B cells (Table 1); type: cell-based; conditions: Homo sapiens, BEAS-2B, DMEM media without glucose, compounds 18 h
Protocol: Additional compounds in Table 1 were or can be prepared according to the above-described Examples. Human bronchial epithelial cells (Beas2B) were seeded in 6-well plates for 18 h. Cells were then exposed to DMEM media without glucose and compounds at various concentrations for an additional 18 h before being collected for immunoblotting.

mice = test: LPS pneumonia model; type: in vivo; conditions: 2 or 10 mg/kg i.p., LPS 3 mg/kg i.t., 18 h
Protocol: FIG. 8. Compound 12 (2 or 10 mg/kg) was administered to mice though an i.p. injection, and mice were immediately challenged with LPS (E. coli, 3 mg/kg, i.t.) or without (control, CON) for an additional 18 h. Mice were then euthanized and lungs were lavaged with saline, harvested, and then homogenized. Lavage protein (H), cell counts (I) and cytokine secretions (E-G) were measured. Lungs were homogenized before being assayed by immunoblotting. The data are representative of data from n=5-6 mice/group, *P<0.05 versus vehicle. Serum cytokines (A-C) and peritoneal bacteria (D) were also measured.
as §1
Compound 12 was tested in two pneumonia model using Pseudomonas or LPS endotoxin.
as §2

OC(COc1ccc(F)cc1)CN(Cc1ccccc1)Cc1ccccc1 (stereo not shown) [Compound 12]
concentration effectively increasing phospho-AMPK and downstream p-ACC levels (phospho-AMPK; Beas2b, with or without glucose, 18 h): 100 to 500 nM | ID50 IL-1β (C57BL6 mice): 0.1 mg/kg | ID50 IL-6 (C57BL6 mice): 0.4 mg/kg | ID50 TNF-α (C57BL6 mice): 0.4 mg/kg | IC50 (pAMPK): < 1 µg/mL | lavage cell counts (mice): significantly decreased | lavage cytokine release (mice): significantly decreased | lavage protein concentration (mice): significantly decreased | pAMPK levels within the lung tissue (mice; immunoblotting): effectively increased

OC(COc1ccc(C(F)(F)F)cc1)CN(Cc1ccccc1)Cc1ccccc1 (stereo not shown) [Compound 23]
level of AMPK T172D phospho mimic mutant (phospho-AMPK; Beas2b transfected with T172D mutant, glucose-free media): drastically increases | pAMPK and pACC levels after Fbxo48 knockdown (phospho-AMPK; Beas2b, Fbxo48 siRNA 48 h, glucose-free media): not able to further activate the pathway | activity on pAMPK compared to Compound 12 (phospho-AMPK; Beas2b, glucose-free media, 6 h and 18 h): comparable or slightly improved activity | concentration range increasing pAMPK phosphorylation and downstream substrate ACC phosphorylation (phospho-AMPK; Beas2b, glucose-free media, 18 h): submicromolar | ID50 IL-6 (C57BL6 mice): 0.4 mg/kg | ID50 TNF-α (C57BL6 mice): 0.4 mg/kg | IC50 (pAMPK): < 1 µg/mL | lavage cell counts (mice): substantially decreased | lavage cytokine release (mice): effectively reduces | lavage protein concentration (mice): substantially decreased
